The source of these data is US20250195521A1 (Revolution Medicines, Inc., priority 2020, published 2025).

Experiment [1] concerns the target KRAS G12V (Homo sapiens (Human), UniProt P01116+P62937, G12V). Nature of the experiment: Ras-Raf disruption/FRET/MOA assay, KRAS G12V. In kind it is biochemical. The essentials:
(§1)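 His6-Ras-GMPPNP 12.5 nM + GST-BRAF^RBD 50 nM + CypA 25 μM; HEPES pH 7.3, 5 mM MgCl2, 0.1% BSA, 0.002% Tween20. Cpd 10-pt 3-fold from 30 μM final, 3 h 25° C. Eu/APC antibody detection 1.5 h; TR-FRET ratio drop vs DMSO → IC50.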

The target in experiment [2] is NRAS Q61K (Homo sapiens (Human), UniProt P01111+P62937, Q61K). Nature of the experiment: Ras-Raf disruption/FRET/MOA assay, NRAS Q61K. It counts as biochemical. The source says: (§2) Disruption of B-Raf Ras-Binding Domain (BRAF^RBD) Interaction with K-Ras by Compounds of the Invention (Also Called a FRET Assay or an MOA Assay)
Chain of NRAS Q61K (P01111 whole entry Q61K, the tested form may be a part): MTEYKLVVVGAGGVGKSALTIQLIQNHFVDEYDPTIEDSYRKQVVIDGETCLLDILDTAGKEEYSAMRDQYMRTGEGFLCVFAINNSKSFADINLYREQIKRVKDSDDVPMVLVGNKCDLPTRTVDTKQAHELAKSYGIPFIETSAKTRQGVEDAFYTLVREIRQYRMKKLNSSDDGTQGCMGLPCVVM
Chain of NRAS Q61K (P62937 whole entry, the tested form may be a part): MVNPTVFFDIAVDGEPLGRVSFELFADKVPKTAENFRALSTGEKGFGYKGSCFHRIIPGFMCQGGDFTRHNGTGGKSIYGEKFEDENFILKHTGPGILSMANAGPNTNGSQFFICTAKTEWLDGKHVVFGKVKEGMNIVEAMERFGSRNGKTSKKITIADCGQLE
(§3) Note—The following protocol describes a procedure for monitoring disruption of K-Ras G12C (GMP-PNP) binding to BRAF^RBD by a compound of the invention. This protocol may also be executed substituting other Ras proteins or nucleotides, such as K-Ras G12D and K-Ras G13D.
(§4) The purpose of this biochemical assay was to measure the ability of test compounds to facilitate ternary complex formation between a nucleotide-loaded K-Ras isoform and Cyclophilin A; the resulting ternary complex disrupts binding to a BRAF^RBD construct, inhibiting K-Ras signaling through a RAF effector. Data is reported as IC50 values.
(§5) In assay buffer containing 25 mM HEPES pH 7.3, 0.002% Tween20, 0.1% BSA, 100 mM NaCl and 5 mM MgCl2, tagless Cyclophilin A, His6-K-Ras-GMPPNP, and GST-BRAF^RBD were combined in a 384-well assay plate at final concentrations of 25 μM, 12.5 nM, and 50 nM, respectively. Compound was present in plate wells as a 10-point 3-fold dilution series starting at a final concentration of 30 μM. After incubation at 25° C. for 3 hours, a mixture of anti-His Eu—W1024 and anti-GST allophycocyanin was then added to assay sample wells at final concentrations of 10 nM and 50 nM, respectively, and the reaction incubated for an additional 1.5 hours. […] Compounds that facilitate disruption of a K-Ras: RAF complex were identified as those eliciting a decrease in the TR-FRET ratio relative to DMSO control wells.

Experiment [3] deals with NRAS G12C (Homo sapiens (Human), UniProt P01111+P62937, G12C). Put plainly: Ras-Raf disruption/FRET/MOA assay, NRAS G12C. It counts as biochemical. The essentials:
as §1

Experiment [4] addresses KRAS WT (Homo sapiens (Human), UniProt P01116+P62937). Put plainly: Ras-Raf disruption/FRET/MOA assay, KRAS WT. In kind it is biochemical. In outline:
as §1

For experiment [5], the target named is KRAS G13C (Homo sapiens (Human), UniProt P01116+P62937, G13C). Put plainly: Ras-Raf disruption/FRET/MOA assay, KRAS G13C. In kind it is biochemical. The essentials:
as §1

Experiment [6] has as its target KRAS G12C (Homo sapiens (Human), UniProt P01116+P62937, G12C). Nature of the experiment: Ras-Raf disruption/FRET/MOA assay, KRAS G12C. It counts as biochemical. The essentials:
as §1

For experiment [7], the target named is KRAS G12D (Homo sapiens (Human), UniProt P01116+P62937, G12D). Put plainly: Ras-Raf disruption/FRET/MOA assay, KRAS G12D. It counts as biochemical. The essentials:
as §1

In experiment [8] the target is NRAS Q61R (Homo sapiens (Human), UniProt P01111+P62937, Q61R). Nature of the experiment: Ras-Raf disruption/FRET/MOA assay, NRAS Q61R. In kind it is biochemical.
Chain of NRAS Q61R (P01111 whole entry Q61R): as the sequence (P01111 whole entry Q61K, the tested form may be a part) above, with K61R counted along it
Chain of NRAS Q61R (P62937 whole entry): as the sequence (P62937 whole entry, the tested form may be a part) above
From the text: as §2, §3, §4, §5

The target in experiment [9] is KRAS Q61H (Homo sapiens (Human), UniProt P01116+P62937, Q61H). Put plainly: Ras-Raf disruption/FRET/MOA assay, KRAS Q61H. It counts as biochemical.
Chain of KRAS Q61H (P01116 other isoform, or with tags, fused parts or gaps Q61H): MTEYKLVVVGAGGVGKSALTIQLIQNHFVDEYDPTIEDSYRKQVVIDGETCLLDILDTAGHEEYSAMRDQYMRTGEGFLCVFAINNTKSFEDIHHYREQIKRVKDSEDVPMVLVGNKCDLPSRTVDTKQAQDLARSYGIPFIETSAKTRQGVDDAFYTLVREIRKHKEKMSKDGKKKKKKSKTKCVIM
Chain of KRAS Q61H (P62937 whole entry): as the sequence (P62937 whole entry, the tested form may be a part) above
From the text: as §2, §3, §4, §5

The target in experiment [10] is KRAS G12S (Homo sapiens (Human), UniProt P01116+P62937, G12S). Put plainly: Ras-Raf disruption/FRET/MOA assay, KRAS G12S. In kind it is biochemical. In outline:
as §1

Experiment [11] has as its target KRAS G13D (Homo sapiens (Human), UniProt P01116+P62937, G13D). Nature of the experiment: Ras-Raf disruption/FRET/MOA assay, KRAS G13D. It counts as biochemical. In outline: as §1
The target in experiment [12] is NRAS WT (Homo sapiens (Human), UniProt P01111+P62937). Put plainly: Ras-Raf disruption/FRET/MOA assay, NRAS WT. It counts as biochemical.
Chain of NRAS WT (P01111 whole entry): as the sequence (P01111 whole entry Q61K, the tested form may be a part) above, with K61Q counted along it
Chain of NRAS WT (P62937 whole entry): as the sequence (P62937 whole entry, the tested form may be a part) above
From the text: as §2, §3, §4, §5

Experiment [13] deals with AsPC-1 (K-Ras G12D). Put plainly: Potency assay: pERK. It counts as cell-based, human. The settings on record: Homo sapiens, ASPC1; AsPC-1 KRAS G12D; read-out: pERK EC50. The essentials:
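Cells plated overnight, then exposed 4 h at 37 °C to 10-point 3-fold dilutions of compound, in duplicate. pERK read by AlphaLISA SureFire Ultra p-ERK1/2 lysate assay or by In-Cell Western (pERK antibody, DRAQ5 DNA normalisation). IC50 from 4-parameter sigmoidal fit of signal vs log concentration.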

Chain of KRAS G12S (P01116 other isoform, or with tags, fused parts or gaps G12S): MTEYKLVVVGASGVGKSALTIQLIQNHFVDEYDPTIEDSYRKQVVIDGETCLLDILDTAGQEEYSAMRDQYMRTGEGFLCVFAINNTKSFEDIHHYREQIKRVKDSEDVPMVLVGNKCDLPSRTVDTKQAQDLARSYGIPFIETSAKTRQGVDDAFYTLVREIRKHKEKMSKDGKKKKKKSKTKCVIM
Chain of KRAS G12S (P62937 whole entry): as the sequence (P62937 whole entry, the tested form may be a part) above
Chain of KRAS G12V (P01116 other isoform, or with tags, fused parts or gaps G12V): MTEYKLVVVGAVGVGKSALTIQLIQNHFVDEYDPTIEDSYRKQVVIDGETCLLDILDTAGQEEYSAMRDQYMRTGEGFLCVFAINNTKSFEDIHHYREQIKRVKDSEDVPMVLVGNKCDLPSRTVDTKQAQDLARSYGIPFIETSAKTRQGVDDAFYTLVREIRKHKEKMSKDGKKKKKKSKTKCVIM
Chain of KRAS G12V (P62937 whole entry): as the sequence (P62937 whole entry, the tested form may be a part) above
Chain of NRAS G12C (P01111 whole entry G12C): as the sequence (P01111 whole entry Q61K, the tested form may be a part) above, with G12C, K61Q counted along it
Chain of NRAS G12C (P62937 whole entry): as the sequence (P62937 whole entry, the tested form may be a part) above
Chain of KRAS G13C (P01116 other isoform, or with tags, fused parts or gaps G13C): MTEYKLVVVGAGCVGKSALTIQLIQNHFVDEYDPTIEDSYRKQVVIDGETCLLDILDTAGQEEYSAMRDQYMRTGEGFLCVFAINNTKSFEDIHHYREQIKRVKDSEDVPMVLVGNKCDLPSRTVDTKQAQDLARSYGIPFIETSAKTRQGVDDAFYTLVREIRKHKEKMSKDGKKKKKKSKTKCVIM
Chain of KRAS G13C (P62937 whole entry): as the sequence (P62937 whole entry, the tested form may be a part) above
Chain of KRAS WT (P01116 other isoform, or with tags, fused parts or gaps): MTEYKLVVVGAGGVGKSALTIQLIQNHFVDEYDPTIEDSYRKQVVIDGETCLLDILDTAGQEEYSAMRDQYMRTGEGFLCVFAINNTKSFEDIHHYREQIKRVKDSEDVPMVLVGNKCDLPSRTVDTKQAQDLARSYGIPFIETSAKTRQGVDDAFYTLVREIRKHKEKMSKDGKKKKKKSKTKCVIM
Chain of KRAS WT (P62937 whole entry): as the sequence (P62937 whole entry, the tested form may be a part) above
Chain of KRAS G12C (P01116-2 other isoform, or with tags, fused parts or gaps G12C): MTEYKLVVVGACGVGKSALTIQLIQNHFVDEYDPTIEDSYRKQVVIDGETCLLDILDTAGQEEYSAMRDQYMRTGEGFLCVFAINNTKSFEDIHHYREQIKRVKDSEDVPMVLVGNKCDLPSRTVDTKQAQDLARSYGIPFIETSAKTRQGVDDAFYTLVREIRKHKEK
Chain of KRAS G12C (P62937 whole entry): as the sequence (P62937 whole entry, the tested form may be a part) above
Chain of KRAS G13D (P01116 other isoform, or with tags, fused parts or gaps G13D): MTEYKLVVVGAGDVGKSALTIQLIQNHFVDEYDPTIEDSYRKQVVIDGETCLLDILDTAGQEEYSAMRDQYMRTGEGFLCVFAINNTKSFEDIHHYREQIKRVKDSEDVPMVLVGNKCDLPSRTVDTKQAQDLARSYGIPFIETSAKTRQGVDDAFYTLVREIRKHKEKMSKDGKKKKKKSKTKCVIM
Chain of KRAS G13D (P62937 whole entry): as the sequence (P62937 whole entry, the tested form may be a part) above
Chain of KRAS G12D (P01116 other isoform, or with tags, fused parts or gaps G12D): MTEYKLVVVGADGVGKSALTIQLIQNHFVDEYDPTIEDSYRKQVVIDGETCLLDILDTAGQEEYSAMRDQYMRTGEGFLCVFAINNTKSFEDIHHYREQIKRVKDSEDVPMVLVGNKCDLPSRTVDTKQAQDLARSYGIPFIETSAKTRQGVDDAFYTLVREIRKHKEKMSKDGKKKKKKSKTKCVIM
Chain of KRAS G12D (P62937 whole entry): as the sequence (P62937 whole entry, the tested form may be a part) above

As to `CCn1c(-c2cccnc2[C@H](C)OC)c2c3cc(ccc31)-c1cc(O)cc(c1)C[C@H](NC(=O)[C@H](C(C)C)N(C)C(=O)[C@@]1(C)CCCN1C(=O)[C@H]1CN1)C(=O)N1CCC[C@H](N1)C(=O)OCC(C)(C)C2` [Example 239], the IC50 in [1] fell in the range of 10 to 100 nM; in [2], 100 to 1000 nM; in experiment [3] it was 10 to 100 nM; in [4], 10 to 100 nM; in [5] it was 10 to 100 nM; in [6], 10 to 100 nM. For the same molecule, the IC50 in experiment [7] was in the range of 100 to 1000 nM; in experiment [8] it was 100 to 1000 nM; in experiment [9], 10 to 100 nM; in experiment [10], 10 to 100 nM; in [11], 10 to 100 nM; in experiment [12], 10 to 100 nM. In experiment [13], the EC50 was less than 5 µM.

For the molecule `CCn1c(-c2cccnc2[C@H](C)OC)c2c3cc(ccc31)-c1cc(O)cc(c1)C[C@H](NC(=O)[C@@H](C(C)C)N(C)C(=O)[C@@]1(C)CCCN1C(=O)[C@H]1CN1)C(=O)N1CCC[C@H](N1)C(=O)OCC(C)(C)C2` [Example 240], the IC50 in experiment [1] is 1000 to 10000 nM; in [2], greater than 10000 nM; in experiment [3], 100 to 1000 nM; in [4], 100 to 1000 nM; in experiment [5], 1000 to 10000 nM; in [6], 100 to 1000 nM. Besides, the IC50 was 1000 to 10000 nM in experiment [7]; 1000 to 10000 nM in experiment [8]; 100 to 1000 nM in experiment [9]; 1000 to 10000 nM in experiment [10]; 1000 to 10000 nM in experiment [11]; 1000 to 10000 nM in experiment [12]. Moreover, the EC50 in [13] is less than 5 µM.

`CCn1c(-c2cccnc2[C@H](C)OC)c2c3cc(ccc31)-c1cc(O)cc(c1)C[C@H](NC(=O)[C@H](C(C)C)N(C)C(=O)[C@@]1(C)CCCN1C(=O)[C@@H]1CN1)C(=O)N1CCC[C@H](N1)C(=O)OCC(C)(C)C2` [Example 241]: the IC50 in experiment [1] is 10 to 100 nM; in [2], 100 to 1000 nM; in experiment [3], less than 10 nM; in [4], 10 to 100 nM; in experiment [5], 10 to 100 nM; in experiment [6] it was less than 10 nM. The IC50 in [7] lay in the range of 10 to 100 nM; in experiment [8], 100 to 1000 nM; in [9] it was 10 to 100 nM; in [10], 10 to 100 nM; in [11] it was 10 to 100 nM; in experiment [12] it was 10 to 100 nM. For the same molecule, the EC50 in experiment [13] is less than 5 µM.

For the molecule `CCn1c(-c2cccnc2[C@H](C)OC)c2c3cc(ccc31)-c1cc(O)cc(c1)C[C@H](NC(=O)[C@@H](C(C)C)N(C)C(=O)[C@@]1(C)CCCN1C(=O)[C@@H]1CN1)C(=O)N1CCC[C@H](N1)C(=O)OCC(C)(C)C2` [Example 242], the IC50 in [1] was 1000 to 10000 nM; in experiment [2] it was 1000 to 10000 nM; in experiment [3] it was 100 to 1000 nM; in [4], 100 to 1000 nM; in experiment [5], 1000 to 10000 nM; in experiment [6] it was 100 to 1000 nM. Besides, the IC50 in experiment [7] fell in the range of 100 to 1000 nM; in experiment [8] it was 1000 to 10000 nM; in [9], 100 to 1000 nM; in experiment [10] it was 100 to 1000 nM; in experiment [11], 100 to 1000 nM; in experiment [12] it was 100 to 1000 nM. The EC50 in [13] was less than 5 µM.

In the case of `CCn1c(-c2cccnc2[C@H](C)OC)c2c3cc(ccc31)-c1cc(O)cc(c1)C[C@H](NC(=O)[C@H](C(C)C)N(C)C(=O)[C@]1(C)CCCN1C(=O)[C@H]1CN1)C(=O)N1CCC[C@H](N1)C(=O)OCC(C)(C)C2` [Example 243], the IC50 in experiment [1] fell in the range of 100 to 1000 nM; in [2], 1000 to 10000 nM; in [3] it was 10 to 100 nM; in experiment [4] it was 100 to 1000 nM; in experiment [5], 100 to 1000 nM; in [6] it was 10 to 100 nM. Further, the IC50 in experiment [7] lay in the range of 100 to 1000 nM; in experiment [8] it was 1000 to 10000 nM; in experiment [9], 100 to 1000 nM; in [10] it was 100 to 1000 nM; in experiment [11] it was 100 to 1000 nM; in experiment [12], 100 to 1000 nM. Besides, the EC50 in experiment [13] is less than 5 µM.

Consider `CCn1c(-c2cccnc2[C@H](C)OC)c2c3cc(ccc31)-c1cc(O)cc(c1)C[C@H](NC(=O)[C@H](C(C)C)N(C)C(=O)[C@]13C[C@H]1CCN3C(=O)[C@H]1CN1)C(=O)N1CCC[C@H](N1)C(=O)OCC(C)(C)C2` [Example 244], for which the IC50 in experiment [1] fell in the range of 100 to 1000 nM; in experiment [2] it was 1000 to 10000 nM; in experiment [3] it was 10 to 100 nM; in [4], 100 to 1000 nM; in [5], 100 to 1000 nM; in experiment [6] it was 10 to 100 nM. In addition, the IC50 fell in the range of 100 to 1000 nM in [7]; 100 to 1000 nM in experiment [8]; 10 to 100 nM in experiment [9]; 100 to 1000 nM in experiment [10]; 100 to 1000 nM in [11]; 100 to 1000 nM in experiment [12].

As for `CCn1c(-c2cccnc2[C@H](C)OC)c2c3cc(ccc31)-c1cc(O)cc(c1)C[C@H](NC(=O)[C@H](C(C)C)N(C)C(=O)[C@@H]1CO[C@H](C)CN1C(=O)[C@H]1CN1)C(=O)N1CCC[C@H](N1)C(=O)OCC(C)(C)C2` [Example 248], the IC50 in experiment [1] fell in the range of 10 to 100 nM; in [2] it was 100 to 1000 nM; in experiment [3], 10 to 100 nM; in [4] it was 10 to 100 nM; in [5], 10 to 100 nM; in [6], 10 to 100 nM. Further, the IC50 in experiment [7] is 10 to 100 nM; in experiment [8], 100 to 1000 nM; in experiment [9], 10 to 100 nM; in experiment [10], 10 to 100 nM; in [11] it was 10 to 100 nM; in [12] it was 10 to 100 nM.

As for `CCn1c(-c2cccnc2[C@H](C)OC)c2c3cc(ccc31)-c1cc(O)cc(c1)C[C@H](NC(=O)[C@H](C(C)C)N(C)C(=O)[C@@H]1CO[C@H](C)CN1C(=O)[C@@H]1CN1)C(=O)N1CCC[C@H](N1)C(=O)OCC(C)(C)C2` [Example 249], the IC50 is 10 to 100 nM in experiment [1]; 10 to 100 nM in experiment [2]; less than 10 nM in experiment [3]; 10 to 100 nM in experiment [4]; 10 to 100 nM in experiment [5]; less than 10 nM in [6]. Further, the IC50 was 10 to 100 nM in experiment [7]; 10 to 100 nM in [8]; less than 10 nM in experiment [9]; 10 to 100 nM in [10]; 10 to 100 nM in experiment [11]; 10 to 100 nM in experiment [12].

Usually IC50 stands for the concentration that inhibits the measured activity by half. A word on the EC50: it is the midpoint of the concentration-response curve.
